Each compound was assayed against T1, GABA A α5 (Homo sapiens, UniProt P18507+P31644) (assay: [3H]flumazenil competition binding, human GABA A α5β3γ2 receptors in HEK293 cell membranes). Settings: human receptor α5β3γ2 transiently transfected in HEK293; 0.5 nM [3H]flumazenil; 1 hour at 4° C.; means of two determinations; read-out: hKi GABA A α5.
T1 construct: expressed in transfected cells; host or cells: HEK293 cells, transiently transfected; membranes prepared from cell pellets
Description: The affinity of compounds at GABA A receptor subtypes was measured by competition for [3H]flumazenil (85 Ci/mmol; Roche) binding to HEK293 cells expressing rat (stably transfected) or human (transiently transfected) receptors of composition α1β3γ2, α2β3γ2, α3β3γ2 and α5β3γ2.
Cell pellets were suspended in Krebs-tris buffer (4.8 mM KCl, 1.2 mM CaCl2, 1.2 mM MgCl2, 120 mM NaCl, 15 mM Tris; pH 7.5; binding assay buffer), homogenized by polytron for ca. 20 sec on ice and centrifuged for 60 min at 4° C. (50000 g; Sorvall, rotor: SM24=20000 rpm). The cell pellets were re-suspended in Krebs-tris buffer and homogenized by polytron for ca. 15 sec on ice. Protein was measured (Bradford method, Bio-Rad) and aliquots of 1 mL were prepared and stored at −80° C.
Assays were incubated to equilibrium for 1 hour at 4° C. and harvested onto GF/C uni-filters (Packard) by filtration using a Packard harvester and washing with ice-cold wash buffer (50 mM Tris; pH 7.5). After drying, filter-retained radioactivity was detected by liquid scintillation counting. Ki values were calculated using Excel-Fit (Microsoft) and are the means of two determinations.

Compound	Ki
5-{(E)-2-[3-(4-Fluoro-phenyl)-5-methyl-isoxazol-4-yl]vinyl}-2H-pyrazole-3-carboxylic acid (2-hydroxy-1-methyl-ethyl)-amide [Example 136]	1 nM
Cc1onc(-c2ccccc2)c1COc1cc(C(=O)NC2CCOC2)[nH]n1 (racemic) [Example 4, Rac-5-(5-Methyl-3-phenyl-isoxazol-4-ylmethoxy)-2H-pyrazole-3-carboxylic acid (tetra-hydro-furan-3-yl)-amide]	6.6 nM
CCCCc1noc(C)c1COc1cc(C(=O)NC2CCOC2)[nH]n1 (racemic) [Example 28, Rac-5-(3-Butyl-5-methyl-isoxazol-4-ylmethoxy)-2H-pyrazole-3-carboxylic acid (tetrahydrofuran-3-yl)-amide]	5.4 nM
Cc1onc(-c2ccc(F)cc2)c1COc1cc(C(=O)NCC(O)C(F)(F)F)n(C)n1 (racemic) [Example 59, Rac-5-[3-(4-Fluoro-phenyl)-5-methyl-isoxazol-4-ylmethoxy]-2-methyl-2H-pyrazole-3-carboxylic acid (3,3,3-trifluoro-2-hydroxy-propyl)-amide]	1.8 nM
Cc1onc(-c2ccc(F)cc2)c1COc1cc(C(=O)NC2CCOC2)n(C)n1 (racemic) [Example 72, Rac-5-[3-(4-Fluoro-phenyl)-5-methyl-isoxazol-4-ylmethoxy]-2-methyl-2H-pyrazole-3-carboxylic acid (tetrahydro-furan-3-yl)-amide]	1.5 nM
CCCCc1noc(C)c1COc1cc(C(=O)NC(C)CO)n(C)n1 (racemic) [Example 87, Rac-5-(3-Butyl-5-methyl-isoxazol-4-ylmethoxy)-2-methyl-2H-pyrazole-3-carboxylic acid (2-hydroxy-1-methyl-ethyl)-amide]	44.7 nM
CCCCc1noc(C)c1COc1cc(C(=O)NC2CCOC2)n(C)n1 (racemic) [Example 89, Rac-5-(3-Butyl-5-methyl-isoxazol-4-ylmethoxy)-2-methyl-2H-pyrazole-3-carboxylic acid (tetrahydro-furan-3-yl)-amide]	20.3 nM
Cn1nc(OCc2c(-c3ccc(F)cc3)noc2CO)cc1C(=O)NC1CCOC1 (racemic) [Example 97, Rac-5-[3-(4-fluoro-phenyl)-5-hydroxymethyl-isoxazol-4-ylmethoxy]-2-methyl-2H-pyrazole-3-carboxylic acid (tetrahydro-furan-3-yl)-amide]	4.5 nM
Cn1nc(OCc2c(-c3ccc(F)cc3)noc2CO)cc1C(=O)NC1(C)COC1 (racemic) [Example 98, Rac-5-[3-(4-fluoro-phenyl)-5-hydroxymethyl-isoxazol-4-ylmethoxy]-2-methyl-2H-pyrazole-3-carboxylic acid (3-methyl-oxetan-3-yl)-amide]	4.9 nM
CCCCc1noc(C)c1COc1cc(C(=O)N[C@@H](C)CO)[nH]n1 (single isomer, unassigned) [Example 30]	25.2 nM
Cc1onc(-c2ccc(F)cc2)c1COc1cc(C(=O)N[C@@H](C)CO)n(C)n1 (single isomer, unassigned) [Example 75, (+)-5-[3-(4-Fluoro-phenyl)-5-methyl-isoxazol-4-ylmethoxy]-2-methyl-2H-pyrazole-3-carboxylic acid ((R)-2-hydroxy-1-methyl-ethyl)-amide or 5-[3-(4-fluoro-phenyl)-5-methyl-isoxazol-4-ylmethoxy]-2-methyl-2H-pyrazole-3-carboxylic acid ((S)-2-hydroxy-1-methyl-ethyl)-amide or enantiomer]	5.7 nM
Cc1onc(-c2ccc(F)cc2)c1COc1cc(C(=O)N[C@H](C)CO)n(C)n1 (single isomer, unassigned) [Example 76, (−)-5-[3-(4-Fluoro-phenyl)-5-methyl-isoxazol-4-ylmethoxy]-2-methyl-2H-pyrazole-3-carboxylic acid ((S)-2-hydroxy-1-methyl-ethyl)-amide or 5-[3-(4-fluoro-phenyl)-5-methyl-isoxazol-4-ylmethoxy]-2-methyl-2H-pyrazole-3-carboxylic acid ((R)-2-hydroxy-1-methyl-ethyl)-amide or enantiomer]	10.8 nM
Cc1onc(-c2ccc(F)cc2)c1COc1cc(C(=O)NCC(O)C(F)(F)F)n(C)n1 (single isomer, unassigned; (+)) [Example 67, (+)-5-[3-(4-Fluoro-phenyl)-5-methyl-isoxazol-4-ylmethoxy]-2-methyl-2H-pyrazole-3-carboxylic acid ((S or R)-3,3,3-trifluoro-2-hydroxy-propyl)-amide or enantiomer]	2.4 nM
CCC(CO)NC(=O)c1cc(OCc2c(-c3ccc(F)cc3)noc2C)nn1C (single isomer, unassigned; (+)) [Example 70, (+)-5-[3-(4-Fluoro-phenyl)-5-methyl-isoxazol-4-ylmethoxy]-2-methyl-2H-pyrazole-3-carboxylic acid ((S or R)-1-hydroxymethyl-propyl)-amide]	16.7 nM
Cc1onc(-c2ccc(F)cc2)c1COc1cc(C(=O)N[C@@H]2CCCC2O)n(C)n1 (single isomer, unassigned; (+)) [Example 74]	2 nM
Cc1onc(-c2ccc(F)cc2)c1COc1cc(C(=O)NCC(O)C(F)(F)F)n(C)n1 (single isomer, unassigned; (-)) [Example 68, (−)-5-[3-(4-Fluoro-phenyl)-5-methyl-isoxazol-4-ylmethoxy]-2-methyl-2H-pyrazole-3-carboxylic acid ((R or S)-3,3,3-trifluoro-2-hydroxy-propyl)-amide or enantiomer]	5.3 nM
CCC(CO)NC(=O)c1cc(OCc2c(-c3ccc(F)cc3)noc2C)nn1C (single isomer, unassigned; (-)) [Example 69, (−)-5-[3-(4-Fluoro-phenyl)-5-methyl-isoxazol-4-ylmethoxy]-2-methyl-2H-pyrazole-3-carboxylic acid ((R or S)-1-hydroxymethyl-propyl)-amide]	3.5 nM
Cc1onc(-c2ccccn2)c1COc1cc(C(=O)NC(C)CO)nn1C (stereo in doubt) [Example 114, 1-Methyl-5-(5-methyl-3-pyridin-2-yl-isoxazol-4-ylmethoxy)-1H-pyrazole-3-carboxylic acid ((S)-2-hydroxy-1-methyl-ethyl)-amide]	16.2 nM

The remaining lines, values ahead:

Ki	Compound
1.2 nM	Cc1onc(-c2ccc(F)cn2)c1COc1cc(C(=O)NC2CCOC2)[nH]n1 (racemic) [Example 18, Rac-5-[3-(5-Fluoro-pyridin-2-yl)-5-methyl-isoxazol-4-ylmethoxy]-2H-pyrazole-3-carboxylic acid (tetrahydro-furan-3-yl)-amide]
22 nM	CCCCc1noc(C)c1COc1cc(C(=O)NC2CCOC(C)(C)C2)[nH]n1 (racemic) [Example 37, Rac-5-(3-Butyl-5-methyl-isoxazol-4-ylmethoxy)-2H-pyrazole-3-carboxylic acid (2,2-dimethyl-tetrahydro-pyran-4-yl)-amide]
9.7 nM	Cc1onc(-c2ccccc2)c1COc1cc(C(=O)NC2CCOC2)n(C)n1 (racemic) [Example 43, Rac-2-Methyl-5-(5-methyl-3-phenyl-isoxazol-4-ylmethoxy)-2H-pyrazole-3-carboxylic acid (tetrahydro-furan-3-yl)-amide]
5.9 nM	Cc1onc(-c2ccc(F)cn2)c1COc1cc(C(=O)NC2CCOC2)n(C)n1 (racemic) [Example 81, Rac-5-[3-(5-fluoro-pyridin-2-yl)-5-methyl-isoxazol-4-ylmethoxy]-2-methyl-2H-pyrazole-3-carboxylic acid (tetrahydro-furan-3-yl)-amide]
2.7 nM	Cn1nc(OCc2c(-c3ccc(Cl)cc3)noc2CO)cc1C(=O)NC1CCOC1 (racemic) [Example 110, Rac-5-[3-(4-Chloro-phenyl)-5-hydroxymethyl-isoxazol-4-ylmethoxy]-2-methyl-2H-pyrazole-3-carboxylic acid (tetrahydro-furan-3-yl)-amide]
6 nM	CCCCc1noc(C)c1COc1cc(C(=O)NC2CCOC2)[nH]n1 (single isomer, unassigned; (+)) [Example 35, (+)-(R or S)-3-((3-Butyl-5-methylisoxazol-4-yl)methoxy)-N-(tetrahydrofuran-3-yl)-1H-pyrazole-5-carboxamide]
5.7 nM	CCCCc1noc(C)c1COc1cc(C(=O)NC2CCOC2)[nH]n1 (single isomer, unassigned; (-)) [Example 34, (−)-(S or R)-3-((3-Butyl-5-methylisoxazol-4-yl)methoxy)-N-(tetrahydrofuran-3-yl)-1H-pyrazole-5-carboxamide]
23.5 nM	Cc1onc(-c2ccccn2)c1COc1cc(C(=O)NC(C)CO)n(C)n1 (stereo in doubt) [Example 80, 2-Methyl-5-(5-methyl-3-pyridin-2-yl-isoxazol-4-ylmethoxy)-2H-pyrazole-3-carboxylic acid ((S)-2-hydroxy-1-methyl-ethyl)-amide]
8.1 nM	CC(NC(=O)c1cc(OCc2c(-c3ccc(Cl)cc3)noc2CO)nn1C)C(F)(F)F (stereo in doubt) [Example 106, 5-[3-(4-Chloro-phenyl)-5-hydroxymethyl-isoxazol-4-ylmethoxy]-2-methyl-2H-pyrazole-3-carboxylic acid ((S)-2,2,2-trifluoro-1-methyl-ethyl)-amide]
